Here are results for 6 compounds from patent US20150330991A1, “METHOD FOR IMPROVING TARGET AFFINITY OF PEPTIDE” (GWANGJU INSTITUTE OF SCIENCE AND TECHNOLOGY, priority 2012, published 2015).

In test [1] the target is T1, ED-B protein (Homo sapiens, UniProt P02751).
T1 construct: Biopanning on ED-B domain
Kind of test: SPR (BIAcore) binding strength assay on immobilized biotin-EDB. The conditions noted are these: for pKd: read-out: KD = Koff/Kon. The protocol: The bipodal peptide binder found from BPB2EDB, BPB3EDB, and BPB4EDB maturation libraries were synthesized (Anygen, Korea). The affinity measurement was conducted using BIAcore X (Biacore AB, Uppsala, Sweden). 2,000 RU of biotin-EDB was allowed to flow on the streptavidin SA chip (Biacore) for immobilization. PBS (pH 7.4) was used as a running buffer, and kinetics at different concentrations was measured under a flow rate of 30 μl per minute. The affinity was calculated using BlAevaluation software (Biacore AB, Uppsala, Sweden).

Test [2] deals with T2, streptavidin (Streptomyces avidinii, UniProt P22629). In words: Phage ELISA specificity to streptavidin versus BSA, ovalbumin and VEGF. Type of test: binding. The conditions noted are these: ovalbumin, VEGF coated wells. The protocol: In order to investigate specificities to streptavidin, of peptides (Strep_opti1 and Strep_opti2) obtained through sequencing, recombinant phages expressing these peptides were used to investigate specificities to streptavidin, BSA, ovalbumin, and VEGF. First, 5 μg/ml streptavidin, BSA, ovalbumin, and VEGF were put in a 96-well ELISA plate (50 μl per well), and then allowed to stand at 4° C. overnight. Next day, all the wells were washed three times with 0.1% PBST, and blocked at room temperature for 2 hrs using 2% BSA diluted with PBS. Then, the solution was discarded, followed by washing with 0.1% PBST three times. 800 μl of recombinant phages of each of Strep_opti1 and Strep_opti2 and 200 μl of 10% BSA were added thereto, and each 100 μl was dispensed into streptavidin, BSA, ovalbumin, and VEGF wells, followed by standing at 27° C. for 1 hr. After washing five times with 0.1% PBST solution, the HRP-conjugated anti-M13 antibody (GE Healthcare) was diluted to 1:1,000, and then the reaction was performed at 27° C. for 1 hr. After washing five times with 0.1% PBST, 100 μl of the TMB solution was dispensed into each well to induce a colorimetric reaction, and then the reaction was stopped by adding 100 μl of 1 M HCl. The absorbance was measured at 450 nm.
T2 sequence (P22629 25-183): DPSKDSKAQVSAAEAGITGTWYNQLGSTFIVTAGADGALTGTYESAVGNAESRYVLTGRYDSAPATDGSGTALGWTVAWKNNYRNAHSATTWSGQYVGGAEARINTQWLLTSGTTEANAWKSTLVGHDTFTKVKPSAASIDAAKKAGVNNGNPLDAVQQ
A general note: ELISA stands for enzyme-linked immunosorbent assay.

In test [3] the target is VEGFR1 (Homo sapiens, UniProt P17948). In words: SPR (BIAcore) binding assay of VEGFR1_opti1 and control peptide on immobilized VEGFR1. The protocol: A VEGFR1-binding peptide optimized peptide and an existing peptide were synthesized (Anygen). The affinity measurement was conducted using BIAcore X (Biacore AB, Uppsala, Sweden). Here, 7000 RU of VEGFR1 was allowed to flow on the CM5 chip (Biacore) for immobilization. PBS (pH 7.4) was used as a running buffer, and the kinetics at different concentrations was measured under a flow rate of 30 μl per minute. The affinity was calculated using BlAevaluation software (Biacore AB, Uppsala, Sweden).
Sequence of VEGFR1 (P17948 27-1338, species assumed): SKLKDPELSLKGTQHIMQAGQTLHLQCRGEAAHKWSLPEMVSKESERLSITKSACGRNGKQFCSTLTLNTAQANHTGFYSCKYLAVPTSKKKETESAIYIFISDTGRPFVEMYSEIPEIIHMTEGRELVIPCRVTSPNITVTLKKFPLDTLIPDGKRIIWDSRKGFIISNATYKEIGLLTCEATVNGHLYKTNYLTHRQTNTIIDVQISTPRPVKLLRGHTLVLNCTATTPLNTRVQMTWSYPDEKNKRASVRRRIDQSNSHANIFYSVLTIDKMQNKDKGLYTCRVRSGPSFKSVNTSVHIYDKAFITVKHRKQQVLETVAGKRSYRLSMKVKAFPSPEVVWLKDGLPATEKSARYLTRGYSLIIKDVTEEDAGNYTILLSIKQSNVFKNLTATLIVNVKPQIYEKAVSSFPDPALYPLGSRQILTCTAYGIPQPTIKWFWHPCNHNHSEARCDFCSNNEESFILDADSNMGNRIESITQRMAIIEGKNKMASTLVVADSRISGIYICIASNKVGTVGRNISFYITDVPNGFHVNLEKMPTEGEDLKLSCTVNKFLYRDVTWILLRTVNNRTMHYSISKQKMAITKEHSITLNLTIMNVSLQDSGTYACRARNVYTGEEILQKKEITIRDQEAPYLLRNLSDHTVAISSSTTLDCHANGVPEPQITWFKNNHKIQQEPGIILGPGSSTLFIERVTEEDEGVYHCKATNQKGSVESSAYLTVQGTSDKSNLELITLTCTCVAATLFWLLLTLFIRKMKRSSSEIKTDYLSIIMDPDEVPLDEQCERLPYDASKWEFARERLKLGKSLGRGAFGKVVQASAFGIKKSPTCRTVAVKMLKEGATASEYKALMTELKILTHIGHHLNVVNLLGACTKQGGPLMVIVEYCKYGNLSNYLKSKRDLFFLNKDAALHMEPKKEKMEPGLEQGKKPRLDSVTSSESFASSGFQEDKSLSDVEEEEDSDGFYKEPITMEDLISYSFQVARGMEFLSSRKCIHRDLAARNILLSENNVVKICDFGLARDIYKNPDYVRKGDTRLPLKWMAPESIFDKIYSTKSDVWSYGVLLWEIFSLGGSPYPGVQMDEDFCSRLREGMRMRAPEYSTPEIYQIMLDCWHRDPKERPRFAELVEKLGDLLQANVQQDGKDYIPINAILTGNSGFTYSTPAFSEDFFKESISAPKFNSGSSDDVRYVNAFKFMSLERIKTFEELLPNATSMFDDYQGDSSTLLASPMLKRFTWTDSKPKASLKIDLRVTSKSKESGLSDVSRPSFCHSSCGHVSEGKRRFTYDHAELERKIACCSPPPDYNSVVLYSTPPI
In general terms: Surface plasmon resonance follows binding to a sensor surface in real time, without labels.

In test [4] the target is T2, streptavidin. In words: SPR (BIAcore) binding assay of Strep_opti1 and control peptide on immobilized streptavidin. The conditions noted are these: from KD values. The protocol:
A streptavidin-binding peptide optimized peptide and an existing peptide were synthesized (Anygen). The affinity measurement was conducted using BIAcore X (Biacore AB, Uppsala, Sweden). Here, 2000 RU of streptavidin was allowed to flow on the CM5 chip (Biacore) for immobilization. PBS (pH 7.4) was used as a running buffer, and the kinetics at different concentrations was measured under a flow rate of 30 μl per minute. The affinity was calculated using BlAevaluation software (Biacore AB, Uppsala, Sweden).

pKd: −log10 of the molar value. Peptide text beside a SMILES is read from it.

T1 sequence (P02751 1271-1359 limits assumed): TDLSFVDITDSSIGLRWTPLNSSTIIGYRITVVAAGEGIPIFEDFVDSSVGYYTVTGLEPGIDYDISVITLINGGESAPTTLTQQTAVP

Regarding `CC[C@H](C)[C@H](NC(=O)CNC(=O)[C@H](CCCCN)NC(=O)[C@H](Cc1c[nH]c2ccccc12)NC(=O)[C@@H](NC(=O)[C@H](Cc1c[nH]c2ccccc12)NC(=O)[C@H](CCCCN)NC(=O)CNC(=O)[C@H](CC(N)=O)NC(=O)[C@H](CCC(=O)O)NC(=O)[C@H](Cc1c[nH]c2ccccc12)NC(=O)[C@@H](NC(=O)[C@H](Cc1c[nH]c2ccccc12)NC(=O)[C@H](CO)NC(=O)CNC(=O)[C@H](CCC(N)=O)NC(=O)[C@@H](NC(=O)[C@@H]1CCCN1C(=O)[C@H](CO)NC(=O)[C@H](CO)NC(=O)[C@@H](N)CS)[C@@H](C)CC)[C@@H](C)O)[C@@H](C)O)C(=O)N[C@H](C(=O)N[C@@H](CCCNC(=N)N)C(=O)N[C@@H](CC(C)C)C(=O)N[C@@H](CCC(=O)O)C(=O)N[C@@H](CCC(N)=O)C(=O)O)[C@@H](C)CC` [peptide 3] (H-CSSPIQGSWTWENGKWTWKGIIRLEQ-OH; N-terminus and C-terminus assumed), in test [1] (SPR, target binding kinetics), the Koff is 5.1 × 10^−4 S^−1, the Kon is 3.0 × 10^4 M^−1S^−1 and the pKd is 7.80.
As to `CC[C@H](C)[C@H](NC(=O)CNC(=O)[C@H](CCCCN)NC(=O)[C@H](Cc1c[nH]c2ccccc12)NC(=O)[C@@H](NC(=O)[C@H](Cc1c[nH]c2ccccc12)NC(=O)[C@H](CCCCN)NC(=O)CNC(=O)[C@H](CC(N)=O)NC(=O)[C@H](CCC(=O)O)NC(=O)[C@H](Cc1c[nH]c2ccccc12)NC(=O)[C@@H](NC(=O)[C@H](Cc1c[nH]c2ccccc12)NC(=O)[C@H](CO)NC(=O)CNC(=O)[C@H](CCC(N)=O)NC(=O)[C@@H](NC(=O)[C@@H]1CCCN1C(=O)[C@H](CO)NC(=O)[C@H](CO)NC(=O)[C@H](CS)NC(=O)[C@H](CO)NC(=O)[C@@H](N)Cc1c[nH]cn1)[C@@H](C)CC)[C@@H](C)O)[C@@H](C)O)C(=O)N[C@H](C(=O)N[C@@H](CCCNC(=N)N)C(=O)N[C@@H](CC(C)C)C(=O)N[C@@H](CCC(=O)O)C(=O)N[C@@H](CCC(N)=O)C(=O)N[C@@H](CCC(N)=O)C(=O)N1CCC[C@H]1C(=O)O)[C@@H](C)CC` [BPB4EDB] (H-HSCSSPIQGSWTWENGKWTWKGIIRLEQQP-OH; N-terminus and C-terminus assumed), the “fold increase in affinity compared with BPB1” value in test [1] (through the optimization system) is 21 fold.
For the compound “WSHPQFEKGGGSWTWENGKWTWKG TLIHPM [Strep_opti2]”, the “specificity (phage ELISA absorbance at 450 nm)” value in test [2] is “specifically bind to streptavidin”.
Compound “GNQWFIGGGSWTWENGKWTWKGRIPKNR (VEGFR1_opti1)” showed an SPR response increase in test [3] (at 5 μM peptide) of 45 RU. Besides, the “fold increase in affinity versus control peptide” value in test [3] (from RU at 5 μM versus 200 μM) is “about 360 fold”.
As for `CC[C@H](C)[C@H](NC(=O)CNC(=O)[C@H](CCCCN)NC(=O)[C@H](Cc1c[nH]c2ccccc12)NC(=O)[C@@H](NC(=O)[C@H](Cc1c[nH]c2ccccc12)NC(=O)[C@H](CCCCN)NC(=O)CNC(=O)[C@H](CC(N)=O)NC(=O)[C@H](CCC(=O)O)NC(=O)[C@H](Cc1c[nH]c2ccccc12)NC(=O)[C@@H](NC(=O)[C@H](Cc1c[nH]c2ccccc12)NC(=O)[C@H](CO)NC(=O)CNC(=O)[C@@H](NC(=O)[C@H](C)NC(=O)[C@H](CO)NC(=O)[C@H](CO)NC(=O)[C@H](CS)NC(=O)[C@@H](N)Cc1c[nH]cn1)C(C)C)[C@@H](C)O)[C@@H](C)O)C(=O)N[C@H](C(=O)N[C@@H](CCCNC(=N)N)C(=O)N[C@@H](CC(C)C)C(=O)N[C@@H](CCC(=O)O)C(=O)N[C@@H](CCC(N)=O)C(=O)O)[C@@H](C)CC` [BPB1EDB] (H-HCSSAVGSWTWENGKWTWKGIIRLEQ-OH; N-terminus and C-terminus assumed), the pKd in test [1] (SPR, target binding kinetics) was 7.12.
In the case of `CC(C)[C@H](NC(=O)[C@H](CCC(N)=O)NC(=O)[C@@H]1CCCN1C(=O)[C@H](Cc1c[nH]cn1)NC(=O)[C@H](C)NC(=O)CNC(=O)[C@H](CCCCN)NC(=O)[C@H](Cc1c[nH]c2ccccc12)NC(=O)[C@@H](NC(=O)[C@H](Cc1c[nH]c2ccccc12)NC(=O)[C@H](CCCCN)NC(=O)CNC(=O)[C@H](CC(N)=O)NC(=O)[C@H](CCC(=O)O)NC(=O)[C@H](Cc1c[nH]c2ccccc12)NC(=O)[C@@H](NC(=O)[C@H](Cc1c[nH]c2ccccc12)NC(=O)[C@H](CO)NC(=O)CNC(=O)CNC(=O)CNC(=O)[C@H](CCCCN)NC(=O)[C@H](CCC(=O)O)NC(=O)[C@H](Cc1ccccc1)NC(=O)[C@H](CCC(N)=O)NC(=O)[C@@H]1CCCN1C(=O)[C@H](Cc1c[nH]cn1)NC(=O)[C@H](CO)NC(=O)[C@@H](N)Cc1c[nH]c2ccccc12)[C@@H](C)O)[C@@H](C)O)C(=O)N[C@@H](CCCNC(=N)N)C(=O)O` [Strep_opti1] (H-WSHPQFEKGGGSWTWENGKWTWKGAHPQVR-OH; N-terminus and C-terminus assumed), the “fold increase in affinity compared with control peptide WSHPQFEK” value in test [4] was determined as 1223 fold. In addition, in test [2], the “specificity (phage ELISA absorbance at 450 nm)” value was “specifically bind to streptavidin”.
